Results on one sequence are retold here after publication PMC7503848 (International Journal of Molecular Sciences, 2020).

Assay [1] relates to myosin A tail. The assay can be described thus: Far Western-Dot blot assay. The format is binding, Plasmodium falciparum. As to conditions: 5 µg immobilized on nitrocellulose; 5 µg/mL biotinylated myosin A tail, 2 h room temperature; anti-biotin. The method, then:
For Far-Western Dot-blot assay, 5 µg each of ZA1S peptide, BSA, and non-specific peptide (N′- pSDNGpSGDD -C′) was immobilized on the strip. Subsequent to the drying of the membrane, it was blocked overnight at 4 °C, following which the second peptide myosin A was overlaid in 5 µg/mL of binding solution (1% BSA/PBST) on the strip for 2 h at room temperature. The strip was washed stringently, and the bound myosin A peptide was detected using an anti-biotin antibody (1:100 dilution) and HRP-conjugated secondary antibody.

Assay [2] has as its system myosin A tail. Put plainly: ELISA, myosin A tail on immobilized ZA1S. The settings on record: ZA1S coated, myosin A tail overlaid, anti-biotin antibody, 450 nm. The class given is binding, Plasmodium falciparum. An excerpt:
All wells were put up in triplicates.
(In general: ELISA stands for enzyme-linked immunosorbent assay.)

The subject of assay [3] is P. falciparum 3D7. The assay can be described thus: Growth inhibition assay (GIA), P. falciparum 3D7. The format is cell-based, Plasmodium falciparum. The method, then:
P. falciparum 3D7 strain was thawed and cultured in vitro in human O+ erythrocytes at 4% hematocrit using the method described previously. Briefly, parasites were cultured in medium containing RPMI 1640 (Invitrogen, Carlsbad, CA, USA), supplemented with 2 g/L NaHCO3 (Sigma, St. Louis, MO, USA), 5 g/L albumax (Invitrogen), 50 mg/L hypoxanthine (Sigma), and 10 µg/mL gentamicin sulfate (Invitrogen, Carlsbad, CA, USA) at a pH of 7.2 under mixed gas condition (5% CO2, 5% O2, […]) at 37 °C.
For the growth inhibition assay, 36–38 h’ parasites were purified by percoll (GE Healthcare, Chicago, IL, USA) density gradient centrifugation. The assay was put on the late trophozoite stage in a 24-well plate in quadruplets in a total 500 µL volume/well. Initial parasitemia and hematocrit were adjusted to 1% and 2%, respectively. ZA1S peptide was added at a final concentration of 10 µM, 20 µM, and 40 µM. Control wells without any peptide or inhibitor were set to validate the normal growth rate of the parasite. After 24 h, a smear was made and fixed in methanol, followed by staining with 10% Giemsa (Sigma, St. Louis, MO, USA) for 10 min. The percent of infected erythrocytes containing different stages of the parasite was counted using a light microscope under 100X oil-immersion. The percent of growth inhibition was calculated using the following formula, and data were plotted graphically. % Growth inhibition = (Control-treated)/Control × 100

Entries after “also recorded” stand apart in the source; their conditions may differ.

As to “DIDIDIMHE [ZA1S, nine amino acid long shortened peptide derived from ZA1 (…)]”, in assay [1], the “Detection of bound myosin A” value was “Myosin A was detected in the spot corresponding to ZA1S”. Besides, the “Binding of myosin A tail to ZA1S” value in assay [2] was “significant binding”. Further, the Invasion inhibition result in assay [3] (10, 20, 40 µM ZA1S on late trophozoite/schizont stage, 24 h, 1% parasitemia, 2% hematocrit, human O+ erythrocytes, Giemsa smear) is “concentration-dependent increase in invasion inhibition; also recorded: abrogated the invasion of P. falciparum in RBCs”. In addition, the “Completeness of parasite invasion inhibition” value in assay [3] (Pfal growth inhibition assay) is on record as “we did not find a complete disruption of myosin A/MTIP complex so as to completely inhibit parasite invasion”. In addition, the Parasite morphology entry in assay [3] (increasing concentrations of ZA1S (10, 20, 40 µM), 24 h, Giemsa smear) is “no change in the parasite morphology”.
